From patent US9205136B2, “Human aminoacyl-tRNA synthetase polypeptides useful for the regulation of angiogenesis” (THE SCRIPPS RESEARCH INSTITUTE, priority 2000, dated 2015)

Columns and labels:
MPs = assay: MP chemotaxis assay (ChemoTX microchemotaxis chamber); format: cell-based, human; conditions: for MP migration induced by synthetic peptide: assay as in Example 2; for MP chemotaxis (MP migration): sample proteins 1 nM, 3 hours
Method: (§1) Cells for the various cytokine assays described were prepared from acid citrate dextrose-treated blood of normal healthy volunteers. Human PMNs were isolated from the blood by centrifugation (700×g) over Histopaque 1077 and 1119 (Sigma). […] This procedure was repeated twice. Human MPs were isolated by centrifugation on Histopaque 1077 (Sigma). The mononuclear fraction was obtained, washed twice in Hanks' balanced salt solution, resuspended in RPMI-1640 medium (Sigma) containing 10% heat-inactivated fetal bovine serum (Sigma), plated in tissue culture flasks, and incubated in a 6% CO2 incubator at 37° C. for 1-2 hours (Kumagai et al., 1979, J. Immunol. Methods 29:17-25). Nonadherent cells were removed by washing the flasks three times with Hanks' balanced salt solution, and adherent cells were harvested by incubation with calcium-magnesium free phosphate-buffered saline containing 2 mM EDTA for 15 minutes at 4° C., followed by extensive washing.
MP chemotaxis assays were performed in a ChemoTX microchemotaxis chamber (Neuro Probe, Gaithersburg, Md.) containing polycarbonate filters (5 μm pores) with polyvinylpyrrolidone (PVP). MPs were suspended in RPMI-1640 medium containing 1% heat-inactivated fetal bovine serum, and 10^4 cells were added to the upper chamber. Sample proteins (1 nM) were added to the lower compartment of chemotaxis chambers, and the chambers were incubated for 3 hours. After incubation, nonmigrating cells were removed, membranes were fixed in methanol, and migrating cells were visualized with the HEMACOLOR™ stain set (EM Diagnostic Systems, Gibbstown, N.J.). Migrating cells were counted in high-power fields (HPFs). Each determination shown in FIG. 2 represents the average of nine HPF measurements.

PMNs [1] = assay: PMN chemotaxis assay (ChemoTX microchemotaxis chamber); format: cell-based, human; conditions: for PMN migration induced by synthetic peptide: assay as in Example 2; for PMN chemotaxis (PMN migration): sample proteins 1 nM, 45 min
Method: as §1
PMN chemotaxis assays were performed in a ChemoTX microchemotaxis chamber (described herein). Sample proteins (1 nM) were added to the lower compartment of chemotaxis chambers, and 10^4 PMNs were added to the upper compartment. Chambers were incubated for 45 min, and migrating cells were counted in HPFs. Each determination shown in FIG. 2 represents the average of nine HPF measurements.

PMNs [2] = assay: 125I-human mini TyrRS binding and competition assay on PMNs; conditions: 10 nM 125I-mini TyrRS, 200-fold molar excess of unlabeled ligand, on ice 2 hours
Method: The interaction of human mini TyrRS and PMNs was examined in binding studies using radioiodinated TyrRS molecules (Moser et al., 1993, J. Biol. Chem. 268:7125-28). Custom radioiodination of mini TyrRS with was performed by Research & Diagnostic Antibody (Richmond, Calif.). In the binding assays, 2×10^6 PMNs were first suspended in 120 μl of RPMI-1640 medium containing 20 mM Hepes (pH 7.4) and 10 mg/ml bovine serum albumin. […] Following incubation, cells were separated from unbound radioactivity by centrifugation at approximately 8000×g for 2 minutes through 500 μL, of a 10% sucrose/phosphate-buffered saline (PBS) cushion. The supernatant was aspirated, and the cell sediment was resuspended using EcoLite (ICN Biomedicals, Irvine, Calif.) and analyzed in a scintillation counter.
Following incubation, cells were separated from unbound radioactivity as described herein.

## R-V-G-R-I-I-K (RVGRIIK; Caenorhabditis elegans) [synthetic peptide derived from C. elegans MetRS, reference compound]
MPs; synthetic heptapeptides
  MP migration induced by synthetic peptide: neither peptide induced PMN or MP migration
PMNs [1]; synthetic heptapeptides
  PMN migration induced by synthetic peptide: neither peptide induced PMN or MP migration

## R-V-G-K-I-I-T (RVGKIIT; listed as Homo sapiens) [TyrRS carboxyl-terminal domain peptide, synthetic peptide derived from the TyrRS carboxyl-terminal domain]
MPs; synthetic heptapeptides
  dose-dependence of peptide effect on MP migration: dose-dependence similar to that of the mature EMAP II peptide
  MP migration induced by synthetic peptide: MP migration
PMNs [1]; synthetic heptapeptides
  dose-dependence of peptide effect on PMN migration: dose-dependence similar to that of the mature EMAP II peptide
  PMN migration induced by synthetic peptide: induced PMN migration

## Gro: human recombinant Gro (Biosource International), α-chemokine
PMNs [2]
  inhibition of 125I-mini TyrRS binding to PMNs by unlabeled ligand: did not significantly inhibit the binding

## R-V-G-F-I-Q-K (RVGFIQK; listed as Saccharomyces cerevisiae) [synthetic peptide derived from S. cerevisiae Arc1p, reference compound]
MPs; synthetic heptapeptides
  MP migration induced by synthetic peptide: neither peptide induced PMN or MP migration
PMNs [1]; synthetic heptapeptides
  PMN migration induced by synthetic peptide: neither peptide induced PMN or MP migration

B1: truncated mini TyrRS: recombinant truncated mini TyrRS comprising residues 1-344 of human full-length TyrRS (protein, UniProt P54577 1-344, looked up, fragment)
chain: MGDAPSPEEKLHLITRNLQEVLGEEKLKEILKERELKIYWGTATTGKPHVAYFVPMSKIADFLKAGCEVTILFADLHAYLDNMKAPWELLELRVSYYENVIKAMLESIGVPLEKLKFIKGTDYQLSKEYTLDVYRLSSVVTQHDSKKAGAEVVKQVEHPLLSGLLYPGLQALDEEYLKVDAQFGGIDQRKIFTFAEKYLPALGYSKRVHLMNPMVPGLTGSKMSSSEEESKIDLLDRKEDVKKKLKKAFCEPGNVENNGVLSFIKHVLFPLKSEFVILRDEKWGGNKTYTAYVDLEKDFAAEVVHPGDLKNSVEVALNKLLDPIREKFNTPALKKLASAAYPDP
MPs
  MP chemotaxis (MP migration): not for MPs
PMNs [1]
  PMN chemotaxis (PMN migration): capable of functioning as a chemoattractant for PMNs

B2: NAP-2: human recombinant NAP-2 (Biosource International), α-chemokine (protein)
chain: AELRCMCIKTTSGIHPKNIQSLEVIGKGTHCNQVEVIATLKDGRKICLDPDAPRIKKIVQKKLAGDESAD
PMNs [2]
  inhibition of 125I-mini TyrRS binding to PMNs by unlabeled ligand: did not significantly inhibit the binding

B3: extended carboxyl-terminal domain: recombinant residues 344-528 of human full-length TyrRS (protein, UniProt P54577 344-528, looked up, fragment)
chain: PSKQKPMAKGPAKNSEPEEVIPSRLDIRVGKIITVEKHPDADSLYVEKIDVGEAEPRTVVSGLVQFVPKEELQDRLVVVLCNLKPQKMRGVESQGMLLCASIEGINRQVEPLDPPAGSAPGEHVFVKGYEKGQPDEELKPKKKVFEKLQADFKISEECIAQWKQTNFMTKLGSISCKSLKGGNIS
MPs
  MP chemotaxis (MP migration): capable of can inducing both MP and PMN chemotaxis
PMNs [1]
  PMN chemotaxis (PMN migration): capable of can inducing both MP and PMN chemotaxis
